Patent US8546389B2 (priority 2010, dated 2013)
pEC50, pIC50: −log10 of the molar value.

Columns and labels:
[1] = biological target: 1b (BK) NS5bΔ21 (Hepatitis C virus genotype 1b (isolate BK) (HCV), UniProt P26663); test: HCV polymerase inhibition assay, genotype 1b; assay type: biochemical, HCV genotype 1b (BK); settings: 1b (BK) NS5bΔ21, 33P-GTP incorporation; read-out: 1b polymerase IC50 (range class)
Protocol: HCV polymerase reactions were carried out using a modified method of Howe et al., Antimicrobial Agents and Chemotherapy 2004 48(12): 4813-4821. Reactions contained a final concentration of, 0.5% DMSO, 50 nM, 1b (BK) NS5bΔ21, 20 mM Tris-HCl pH 7.5, 5 mM MgCl2, 5 mM MnCl2, 3 mM DTT, 0.05% BSA, 0.2 U/μL RNasin, 10 μg/mL Poly(rC) template, GTP (at Km) and 0.05 μCi/μL ^33P-GTP in a total reaction volume of 50 μL. Compounds were tested in a three fold dilution series, for example starting from 50 μM. Reactions were initiated with the addition of GTP and terminated after 1 hour with 50 μL ice cold 0.2 M EDTA. Terminated reactions were transferred to DEAE 96-well filter plates, unincorporated nucleotides washed from the filters and 50 μL scintillation fluid added prior to reading on a scintillation counter. Similarly, a genotype 3a (VRL-69) NS5bΔ21 polymerase enzyme assay was conducted using essentially the same method.
The compound concentration that reduced ^33P-GTP incorporation by 50% (IC50) was calculated using non-linear regression.

[2] = test system: genotype 1b (Con 1) subgenomic replicon cell line; test: HCV replicon assay, genotype 1b (Renilla luciferase); assay type: cell-based, HCV genotype 1b (Con 1); settings: Hepatitis C virus; genotype 1b replicon, 72 hours, luciferase; read-out: genotype 1b EC50 (range class)
Protocol: A genotype 1b (Con 1) subgenomic replicon cell line based on Blight et al., Science 2000 290: 1972-1974, modified to express a Renilla luciferase reporter gene was used to assess antiviral activity of test compounds. Cell cultures were maintained in a sub-confluent state in DMEM with glutamine, 10% heat-inactivated foetal bovine serum (FBS) and G418 (Geneticin®).
For assay, cells were seeded at a density of 7000 cells/well into 96 well tissue culture trays in culture media lacking G418. Compounds were tested in a three fold dilution series, for example starting from 50 uM. After 72 hours incubation at 37° C. and 5% CO2, Renilla luciferase activity was quantified via the Promega Renilla Luciferase or Renilla-Glo™ Luciferase Assay Systems (Promega corporation. The same method was employed for replicon assays using subgenomic genotype 1a and 2a replicon cell lines with a seeding cell density of 5000 cells/well for the 2a cell lines.
The compound concentration that reduced luciferase activity by 50% (EC50) was calculated using non-linear regression.

1b (BK) NS5bΔ21, sequence (P26663 2420-2989): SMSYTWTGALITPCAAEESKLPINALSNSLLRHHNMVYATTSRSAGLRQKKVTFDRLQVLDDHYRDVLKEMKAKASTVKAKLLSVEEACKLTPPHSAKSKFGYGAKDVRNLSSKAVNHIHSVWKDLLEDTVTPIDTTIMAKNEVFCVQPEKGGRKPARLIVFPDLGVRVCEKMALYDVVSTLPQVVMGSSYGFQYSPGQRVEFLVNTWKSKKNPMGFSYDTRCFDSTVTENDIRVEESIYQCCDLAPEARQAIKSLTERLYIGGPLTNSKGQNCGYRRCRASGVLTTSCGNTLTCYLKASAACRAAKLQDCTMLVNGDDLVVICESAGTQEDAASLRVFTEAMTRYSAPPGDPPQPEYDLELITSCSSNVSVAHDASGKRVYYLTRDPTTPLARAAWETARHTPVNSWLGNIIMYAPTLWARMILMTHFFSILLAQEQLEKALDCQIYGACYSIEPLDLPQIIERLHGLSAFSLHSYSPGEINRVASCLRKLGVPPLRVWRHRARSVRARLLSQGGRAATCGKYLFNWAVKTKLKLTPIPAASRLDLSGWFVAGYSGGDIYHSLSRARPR

| SMILES | pIC50 [1] | pEC50 [2] |
| --- | --- | --- |
| CNC(=O)c1c2cc(C3CC3)c(N(C3CCN(S(C)(=O)=O)C3)S(C)(=O)=O)cc2nn1-c1ccc(Br)cc1 (centres unmarked) [Compound 52, 2-(4-bromophenyl)-5-cyclopropyl-N-methyl-6-{(methylsulfonyl)[1-(methylsulfonyl)pyrrolidin-3-yl]amino}-2H-indazole-3-carboxamide] | > 6.00 | > 6.00 |
| CNC(=O)c1c2cc(C3CC3)c(N(CCCO)S(C)(=O)=O)cc2nn1-c1ccc(C2CC2)cc1 [Compound 53, 5-cyclopropyl-2-(4-cyclopropylphenyl)-6-[(3-hydroxypropyl)(methylsulfonyl)amino]-N-methyl-2H-indazole-3-carboxamide] | 5.00 to 6.00 | > 6.00 |
| CNC(=O)c1c2cc(C3CC3)c(N(CCCO)S(C)(=O)=O)cc2nn1-c1ccc(OC)cc1 [Compound 55, 5-cyclopropyl-6-[(3-hydroxypropyl)(methylsulfonyl)amino]-2-(4-methoxyphenyl)-N-methyl-2H-indazole-3-carboxamide] | 5.00 to 6.00 | 5.00 to 6.00 |
| CNC(=O)c1c2cc(C3CC3)c(N(CCCF)S(C)(=O)=O)cc2nn1-c1ccc(Cl)cc1 [Compound 57, 2-(4-chlorophenyl)-5-cyclopropyl-6-[3-fluoropropyl(methylsulfonyl)amino]-N-methyl-2H-indazole-3-carboxamide] | > 6.00 | > 6.00 |
| CNC(=O)c1c2cc(C3CC3)c(N(CCCNC(=O)CCC(=O)O)S(C)(=O)=O)cc2nn1-c1ccc(Nc2ccc(F)cc2)cc1 [Compound 58, 4-[(3-{[5-Cyclopropyl-2-{4-[(4-fluorophenyl)amino]phenyl}-3-(methylcarbamoyl)-2H-indazol-6-yl](methylsulfonyl)amino}propyl)amino]-4-oxobutanoic acid] | > 6.00 | 4.30 to 5.00 |
| CNC(=O)c1c2cc(C3CC3)c(N(CCCNC(C)=O)S(C)(=O)=O)cc2nn1-c1ccc(NCC(C)C)cc1 [Compound 60, 6-{[3-(acetylamino)propyl](methylsulfonyl)amino}-5-cyclopropyl-N-methyl-2-(4-[(2-methylpropyl)amino]phenyl)-2H-indazole-3-carboxamide] | 5.00 to 6.00 | 5.00 to 6.00 |
| CNC(=O)c1c2cc(C3CC3)c(N(CCCNC(=O)CCN)S(C)(=O)=O)cc2nn1-c1ccc(Br)cc1 [Compound 61, 6-{[3-(β-Alanylamino)propyl](methylsulfonyl)amino}-2-(4-bromophenyl)-5-cyclopropyl-N-methyl-2H-indazole-3-carboxamide] | > 6.00 | 5.00 to 6.00 |
| CNC(=O)c1c2cc(C3CC3)c(N(CCCNC(=O)[C@H]3CCC[C@H]3C(=O)O)S(C)(=O)=O)cc2nn1-c1ccc(Br)cc1 [Compound 63, (1R,2S)-2-[(3-{[2-(4-Bromophenyl)-5-cyclopropyl-3-(methylcarbamoyl)-2H-indazol-6-yl](methylsulfonyl)amino}propyl)carbamoyl]cyclopentanecarboxylic acid] | > 6.00 | > 6.00 |
| CNC(=O)c1c2cc(C3CC3)c(N(CCCNC(=O)C3COCCN3C)S(C)(=O)=O)cc2nn1-c1ccc(Br)cc1 (centres unmarked) [Compound 64, 2-(4-Bromophenyl)-5-cyclopropyl-N-methyl-6-{[3-({[4-methylmorpholin-3-yl]carbonyl}amino)propyl](methylsulfonyl)amino}-2H-indazole-3-carboxamide] | > 6.00 | > 6.00 |
| CNC(=O)c1c2cc(C3CC3)c(N(CCCN(C)C)S(C)(=O)=O)cc2nn1-c1ccc(Br)cc1 [Compound 65, 2-(4-Bromophenyl)-5-cyclopropyl-6-{[3-(dimethylamino)propyl] (methylsulfonyl)amino}-N-methyl-2H-indazole-3-carboxamide] | > 6.00 | > 6.00 |
| CNC(=O)c1c2cc(C3CC3)c(N(CCCNC(=O)CCC(=O)NC(C)C)S(C)(=O)=O)cc2nn1-c1ccc(Br)cc1 [Compound 67] | > 6.00 | 5.00 to 6.00 |
| CNC(=O)c1c2cc(C3CC3)c(N(CCCNC(=O)CCC(=O)O)S(C)(=O)=O)cc2nn1-c1ccc(Br)cc1 [Compound 68, 4-[(3-{[2-(4-bromophenyl)-5-cyclopropyl-3-(methylcarbamoyl)-2H-indazol-6-yl](methylsulfonyl)amino}propyl)amino]-4-oxobutanoic acid] | > 6.00 | 4.30 to 5.00 |
| CNC(=O)c1c2cc(C3CC3)c(N(CCCN3C(=O)CCC3=O)S(C)(=O)=O)cc2nn1-c1ccc(Br)cc1 [Compound 69, 2-(4-bromophenyl)-5-cyclopropyl-6-{[3-(2,5-dioxopyrrolidin-1-yl)propyl](methylsulfonyl)amino}-N-methyl-2H-indazole-3-carboxamide] | > 6.00 | > 6.00 |
| CNC(=O)c1c2cc(C3CC3)c(N(CCCN3CCNC3=O)S(C)(=O)=O)cc2nn1-c1ccc(Br)cc1 [Compound 70, 2-(4-Bromophenyl)-5-cyclopropyl-N-methyl-6-{(methylsulfonyl)[3-(2-oxoimidazolidin-1-yl)propyl]amino}-2H-indazole-3-carboxamide] | > 6.00 | 5.00 to 6.00 |
| C=Cc1cc2c(C(=O)NC)n(-c3ccc(F)cc3)nc2cc1N(CC)S(C)(=O)=O [Compound 71, 5-Ethenyl-6-[ethyl(methylsulfonyl)amino]-2-(4-fluorophenyl)-N-methyl-2H-indazole-3-carboxamide] | 5.00 to 6.00 | 5.00 to 6.00 |
| CCc1cc2c(C(=O)NC)n(-c3ccc(F)cc3)nc2cc1N(CC)S(C)(=O)=O [Compound 72, 5-ethyl-6-[ethyl(methylsulfonyl)amino]-2-(4-fluorophenyl)-N-methyl-2H-indazole-3-carboxamide] | 5.00 to 6.00 | 5.00 to 6.00 |
| CCN(c1cc2nn(-c3ccc(F)cc3)c(C(=O)NC)c2cc1C1=CCCC1)S(C)(=O)=O [Compound 73, 5-(Cyclopent-1-en-1-yl)-6-[ethyl(methylsulfonyl)amino]-2-(4-fluorophenyl)-N-methyl-2H-indazole-3-carboxamide] | 4.30 to 5.00 | 5.00 to 6.00 |
| CCN(c1cc2nn(-c3ccc(F)cc3)c(C(=O)NC)c2cc1C1CCCC1)S(C)(=O)=O [Compound 74, 5-cyclopentyl-6-[ethyl(methylsulfonyl)amino]-2-(4-fluorophenyl)-N-methyl-2H-indazole-3-carboxamide] | 4.30 to 5.00 | 5.00 to 6.00 |
| CCN(c1cc2nn(-c3ccc(F)cc3)c(C(=O)NC)c2cc1C#CCO)S(C)(=O)=O [Compound 75, 6-[Ethyl(methylsulfonyl)amino]-2-(4-fluorophenyl)-5-(3-hydroxyprop-1-yn-1-yl)-N-methyl-2H-indazole-3-carboxamide] | 5.00 to 6.00 | 4.30 to 5.00 |
| CCN(c1cc2nn(-c3ccc(F)cc3)c(C(=O)NC)c2cc1/C=C\CO)S(C)(=O)=O [Compound 76, 6-[ethyl(methylsulfonyl)amino]-2-(4-fluorophenyl)-5[(1Z)-3-hydroxyprop-1-en-1-yl]-N-methyl-2H-indazole-3-carboxamide] | 4.30 to 5.00 | 5.00 to 6.00 |
| C#Cc1cc2c(C(=O)NC)n(-c3ccc(F)cc3)nc2cc1N(CC)S(C)(=O)=O [Compound 77, 6-[Ethyl(methylsulfonyl)amino]-5-ethynyl-2-(4-fluorophenyl)-N-methyl-2H-indazole-3-carboxamide] | 4.30 to 5.00 | 5.00 to 6.00 |
| CCN(c1cc2nn(-c3ccc(F)cc3)c(C(=O)NC)c2cc1OC(F)F)S(C)(=O)=O [Compound 78, 5-(Difluoromethoxy)-6-[ethyl(methylsulfonyl)amino]-2-(4-fluorophenyl)-N-methyl-2H-indazole-3-carboxamide] | 4.30 to 5.00 | 5.00 to 6.00 |
| CNC(=O)c1c2cc(C3CC3)c(N(CCCO)S(C)(=O)=O)cc2nn1-c1ccc(COC(C)C)cc1 [Compound 79, 5-Cyclopropyl-6-[(3-hydroxypropyl)(methylsulfonyl)amino]-N-methyl-2-{4-[(propan-2-yloxy)methyl]phenyl}-2H-indazole-3-carboxamide] | 5.00 to 6.00 | 5.00 to 6.00 |
| CNC(=O)c1c2cc(C3CC3)c(-c3c(C)noc3C)cc2nn1-c1ccc(F)cc1 [Compound 83, 5-Cyclopropyl-6-(3,5-dimethyl-1,2-oxazol-4-yl)-2-(4-fluorophenyl)-N-methyl-2H-indazole-3-carboxamide] | 4.30 to 5.00 | 5.00 to 6.00 |
| CCOC(=O)CCCN(c1cc2nn(-c3ccc(Br)cc3)c(C(=O)NC)c2cc1C1CC1)S(C)(=O)=O [Compound 88, Ethyl 4-{[2-(4-bromophenyl)-5-cyclopropyl-3-(methylcarbamoyl)-2H-indazol-6-yl](methylsulfonyl)amino}butanoate] | > 6.00 | > 6.00 |
